Laboratory results reported in article PMC7413254 (Nature Communications, 2020).

What was measured:
Format in all cases: cell-based
PfNT1 = biological target: T1, PfNT1 (Plasmodium falciparum, UniProt Q8IDM6); assay: cell-based; details: trans-stimulation, solute 45 mM injected (estimated intracellular)
T1 construct: expressed in transfected cells; host or cells: Xenopus laevis oocytes (stage V-VI), cRNA-injected
Outline: (§1)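 Oocytes (ten per treatment, ≥4 independent frogs/days) were preloaded by injecting VF-6 in 25 nL ND96 at pH 5.0, 5.5, 6.0 or 7.0, or Na^+-free choline buffer, then uptake run 1.5 h, 27.5 °C, ND96 pH 5.5 by default. Internal concentrations assumed ~400 nL oocyte volume.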

PfCRT^3D7 = PfCRT^3D7 (Plasmodium falciparum, UniProt Q8IBZ9); assay: cell-based; details: for [3H]CQ transport, PfCRT3D7 (% PfCRT3D7 control): trans-stimulation, solute 45 mM injected (estimated intracellular); for PfCRT-mediated [3H]CQ transport, trans-stimulation (% PfCRT3D7 control): PfCRT3D7 oocytes, normalised to oocyte type control
Chain of PfCRT^3D7 (Q8IBZ9 59-398): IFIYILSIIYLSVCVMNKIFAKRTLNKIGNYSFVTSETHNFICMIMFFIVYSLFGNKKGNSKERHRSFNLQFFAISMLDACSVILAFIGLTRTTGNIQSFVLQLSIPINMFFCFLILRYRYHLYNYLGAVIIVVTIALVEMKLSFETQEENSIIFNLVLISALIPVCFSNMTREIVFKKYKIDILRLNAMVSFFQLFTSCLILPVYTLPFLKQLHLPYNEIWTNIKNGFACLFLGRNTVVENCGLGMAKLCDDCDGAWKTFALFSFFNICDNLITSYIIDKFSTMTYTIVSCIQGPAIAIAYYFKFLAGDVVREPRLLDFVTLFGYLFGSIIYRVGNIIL
Outline: as §1

PfCRT^Dd2 [1] = biological target: T2, PfCRT^Dd2 (Plasmodium falciparum, UniProt Q9N623, A220S/I356T/K76T/M74I/N326S/N75E/Q271E/R371I); assay: cell-based; details: for PfCRT-mediated [3H]CQ transport, trans-stimulation (% PfCRTDd2 control): PfCRTDd2 oocytes, normalised to oocyte type control; for [3H]CQ transport (% PfCRTDd2 control), trans-stimulation, PfCRTDd2: PfCRT-mediated component (background subtracted), mean ± SEM, SEM
T2 sequence (Q9N623 whole entry A220S/I356T/K76T/M74I/N326S/N75E/Q271E/R371I): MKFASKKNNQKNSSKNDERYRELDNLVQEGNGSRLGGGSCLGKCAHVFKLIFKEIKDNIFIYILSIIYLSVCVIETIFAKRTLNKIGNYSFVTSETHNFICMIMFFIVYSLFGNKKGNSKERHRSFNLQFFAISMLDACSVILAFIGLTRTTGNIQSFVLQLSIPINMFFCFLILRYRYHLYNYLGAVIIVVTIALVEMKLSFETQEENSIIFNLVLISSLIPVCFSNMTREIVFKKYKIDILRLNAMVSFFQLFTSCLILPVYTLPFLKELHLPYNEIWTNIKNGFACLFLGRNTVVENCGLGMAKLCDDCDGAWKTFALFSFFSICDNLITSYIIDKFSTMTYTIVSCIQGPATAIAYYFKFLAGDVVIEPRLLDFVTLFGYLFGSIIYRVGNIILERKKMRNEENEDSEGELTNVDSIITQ
Outline: as §1

PfCRT^Ecu1110 [2] = biological target: T3, PfCRT^Ecu1110 (Plasmodium falciparum, UniProt Q9N623, A220S/I356L/K76T/N326D); assay: cell-based; details: for PfCRT-mediated [3H]CQ transport, trans-stimulation (% PfCRTEcu1110 control): PfCRTEcu1110 oocytes, normalised to oocyte type control; for [3H]CQ transport (% PfCRTDd2 control), trans-stimulation, PfCRTEcu1110: PfCRT-mediated component (background subtracted), sheet title says normalised to PfCRTDd2 control, mean ± SEM, SEM
T3 sequence (Q9N623 whole entry A220S/I356L/K76T/N326D): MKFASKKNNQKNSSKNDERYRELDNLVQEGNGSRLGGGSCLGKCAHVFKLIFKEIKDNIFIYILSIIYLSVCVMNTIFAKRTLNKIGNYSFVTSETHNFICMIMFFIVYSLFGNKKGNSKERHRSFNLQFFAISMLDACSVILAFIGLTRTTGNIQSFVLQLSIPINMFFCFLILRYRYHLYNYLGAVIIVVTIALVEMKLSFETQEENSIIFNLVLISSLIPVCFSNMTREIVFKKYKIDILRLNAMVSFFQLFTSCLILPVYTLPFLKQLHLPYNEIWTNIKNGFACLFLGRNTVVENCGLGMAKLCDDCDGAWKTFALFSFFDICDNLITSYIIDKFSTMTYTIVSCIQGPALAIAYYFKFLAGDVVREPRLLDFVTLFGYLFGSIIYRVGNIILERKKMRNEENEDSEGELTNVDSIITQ
Outline: as §1

PfCRT^Dd2 [3] = biological target: T2, PfCRT^Dd2; assay: [3H]CQ uptake into Xenopus oocytes, cis-inhibition by unlabelled solute; details: PfCRTDd2 oocytes, background [3H]CQ accumulation subtracted, normalised to oocyte type control
Outline: (§2)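 Each treatment used ten oocytes, repeated in at least four experiments on different days with oocytes from different frogs. Conditions: ND96 pH 5.5, 27.5 °C, 1.5 h; read-out by scintillation counting.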

PfCRT^Ecu1110 [4] = biological target: T3, PfCRT^Ecu1110; assay: as above; details: for PfCRT-mediated [3H]CQ transport, cis-inhibition (% PfCRTEcu1110 control): PfCRTEcu1110 oocytes, background [3H]CQ accumulation subtracted, normalised to oocyte type control; for [3H]CQ transport (% PfCRTEcu1110 control), cis-inhibition, PfCRTEcu1110: PfCRT-mediated component (background subtracted), sheet title says normalised to PfCRTDd2 control, mean ± SEM, SEM
Outline: as §2

[5] = [test solute]i = 5 mM (intracellular)
[6] = [test solute]i = 45 mM (intracellular; 30 mM for some solutes due to solubility)
[7] = [test solute]i = 5 mM (injected)
[8] = [test solute]i = 45 mM (30 mM for some solutes due to solubility)

T1 sequence (Q8IDM6 whole entry): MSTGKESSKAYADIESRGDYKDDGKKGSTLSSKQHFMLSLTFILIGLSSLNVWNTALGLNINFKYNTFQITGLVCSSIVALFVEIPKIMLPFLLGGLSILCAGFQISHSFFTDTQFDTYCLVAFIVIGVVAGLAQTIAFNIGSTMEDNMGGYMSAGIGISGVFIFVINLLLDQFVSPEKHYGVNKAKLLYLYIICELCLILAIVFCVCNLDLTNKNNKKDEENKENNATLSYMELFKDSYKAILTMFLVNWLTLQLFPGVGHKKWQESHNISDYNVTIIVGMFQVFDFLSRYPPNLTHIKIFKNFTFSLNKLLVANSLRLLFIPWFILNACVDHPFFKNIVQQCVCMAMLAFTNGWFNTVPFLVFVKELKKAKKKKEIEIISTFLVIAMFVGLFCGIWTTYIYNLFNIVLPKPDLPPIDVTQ

Row | Substance | PfCRT-mediated [3H]CQ transport, trans-stimulation (% PfCRT3D7 control) (PfCRT^3D7; [5]) | PfCRT-mediated [3H]CQ transport, trans-stimulation (% PfCRT3D7 control) (PfCRT^3D7; [6]) | PfCRT-mediated [3H]CQ transport, trans-stimulation (% PfCRTDd2 control) (PfCRT^Dd2 [1]; [5]) | PfCRT-mediated [3H]CQ transport, trans-stimulation (% PfCRTDd2 control) (PfCRT^Dd2 [1]; [6]) | [3H]CQ transport (% PfCRTDd2 control), trans-stimulation, PfCRTDd2 (PfCRT^Dd2 [1]; [7]) | [3H]CQ transport (% PfCRTDd2 control), trans-stimulation, PfCRTDd2 (PfCRT^Dd2 [1]; [8]) | PfCRT-mediated [3H]CQ transport, trans-stimulation (% PfCRTEcu1110 control) (PfCRT^Ecu1110 [2]; [5]) | PfCRT-mediated [3H]CQ transport, trans-stimulation (% PfCRTEcu1110 control) (PfCRT^Ecu1110 [2]; [6]) | [3H]CQ transport (% PfCRTDd2 control), trans-stimulation, PfCRTEcu1110 (PfCRT^Ecu1110 [2]; [7]) | [3H]CQ transport (% PfCRTDd2 control), trans-stimulation, PfCRTEcu1110 (PfCRT^Ecu1110 [2]; [8]) | PfCRT-mediated [3H]CQ transport, cis-inhibition (% PfCRTDd2 control) (PfCRT^Dd2 [3]; [test solute] = 0.5 mM) | PfCRT-mediated [3H]CQ transport, cis-inhibition (% PfCRTDd2 control) (PfCRT^Dd2 [3]; [test solute] = 1 mM) | PfCRT-mediated [3H]CQ transport, cis-inhibition (% PfCRTDd2 control) (PfCRT^Dd2 [3]; [test solute] = 2 mM) | PfCRT-mediated [3H]CQ transport, cis-inhibition (% PfCRTEcu1110 control) (PfCRT^Ecu1110 [4]; [test solute] = 0.5 mM) | PfCRT-mediated [3H]CQ transport, cis-inhibition (% PfCRTEcu1110 control) (PfCRT^Ecu1110 [4]; [test solute] = 1 mM) | PfCRT-mediated [3H]CQ transport, cis-inhibition (% PfCRTEcu1110 control) (PfCRT^Ecu1110 [4]; [test solute] = 2 mM) | [3H]CQ transport (% PfCRTEcu1110 control), cis-inhibition, PfCRTEcu1110 (PfCRT^Ecu1110 [4]; [test solute] = 0.5 mM) | [3H]CQ transport (% PfCRTEcu1110 control), cis-inhibition, PfCRTEcu1110 (PfCRT^Ecu1110 [4]; [test solute] = 2 mM) | [3H]CQ transport (% PfCRTEcu1110 control), cis-inhibition, PfCRTEcu1110 (PfCRT^Ecu1110 [4]; [test solute] = 1 mM) | also measured
1 | AHAGEYGAEALE [AE-12] |  |  |  |  |  |  |  |  |  |  |  |  |  |  |  |  |  |  |  | [3H]CQ transport, PfNT1 (% PfCRTDd2 control) (PfNT1; Experiment 1): 2.23 % PfCRTDd2 control; [3H]CQ transport, PfNT1 (% PfCRTDd2 control) (PfNT1; Experiment 2): 2.37 % PfCRTDd2 control; [3H]CQ transport, PfNT1 (% PfCRTDd2 control) (PfNT1; Experiment 3): 2.71 % PfCRTDd2 control; [3H]CQ transport, PfNT1 (% PfCRTDd2 control) (PfNT1; Experiment 4): 2.43 % PfCRTDd2 control; [3H]CQ transport, PfCRT3D7 (% PfCRT3D7 control) (PfCRT^3D7; Experiment 1): 100.93 % PfCRT3D7 control; [3H]CQ transport, PfCRT3D7 (% PfCRT3D7 control) (PfCRT^3D7; Experiment 2): 94.28 % PfCRT3D7 control; [3H]CQ transport, PfCRT3D7 (% PfCRT3D7 control) (PfCRT^3D7; Experiment 3): 100.75 % PfCRT3D7 control; [3H]CQ transport, PfCRT3D7 (% PfCRT3D7 control) (PfCRT^3D7; Experiment 4): 102.32 % PfCRT3D7 control
2 | DPENF [DEF-5] | 129 ± 3.2 % PfCRT3D7 control | 162 ± 4.2 % PfCRT3D7 control | 100 ± 2.1 % PfCRTDd2 control | 112 ± 0.5 % PfCRTDd2 control | 100 ± 2.1 % PfCRTDd2 control | 112 ± 0.5 % PfCRTDd2 control | 122 ± 1.9 % PfCRTEcu1110 control | 137 ± 2.5 % PfCRTEcu1110 control | 37 ± 1.5 % PfCRTEcu1110 control | 41 ± 2.3 % PfCRTEcu1110 control | 29 ± 2.1 % PfCRTDd2 control | 20 ± 1.1 % PfCRTDd2 control | 11 ± 0.1 % PfCRTDd2 control | 41 ± 2.7 % PfCRTEcu1110 control | 28 ± 1.0 % PfCRTEcu1110 control | 18 ± 0.3 % PfCRTEcu1110 control | 13 ± 0.1 % PfCRTEcu1110 control | 6.0 ± 0.3 % PfCRTEcu1110 control |  | 
3 | HVDDMPNA [HA-8] | 99 ± 3.8 % PfCRT3D7 control | 97 ± 4.1 % PfCRT3D7 control | 96 ± 3.1 % PfCRTDd2 control | 96 ± 2.1 % PfCRTDd2 control |  |  | 95 ± 2.2 % PfCRTEcu1110 control | 99 ± 3.8 % PfCRTEcu1110 control |  |  | 48 ± 3.1 % PfCRTDd2 control | 27 ± 0.4 % PfCRTDd2 control | 20 ± 1.3 % PfCRTDd2 control | 50 ± 2.1 % PfCRTEcu1110 control | 40 ± 2.5 % PfCRTEcu1110 control | 27 ± 1.4 % PfCRTEcu1110 control |  |  |  | 
4 | KEEAE [KE-5] | 98 ± 3.3 % PfCRT3D7 control | 96 ± 2.1 % PfCRT3D7 control | 97 ± 4.2 % PfCRTDd2 control | 99 ± 3.2 % PfCRTDd2 control | 97 ± 4.2 % PfCRTDd2 control | 99 ± 3.2 % PfCRTDd2 control | 98 ± 3.1 % PfCRTEcu1110 control | 98 ± 1.3 % PfCRTEcu1110 control | 30 ± 1.5 % PfCRTEcu1110 control | 30 ± 1.3 % PfCRTEcu1110 control | 68 ± 3.2 % PfCRTDd2 control | 60 ± 4.9 % PfCRTDd2 control | 50 ± 1.1 % PfCRTDd2 control |  | 61 ± 1.5 % PfCRTEcu1110 control | 54 ± 2.1 % PfCRTEcu1110 control | 21 ± 0.4 % PfCRTEcu1110 control | 17 ± 0.3 % PfCRTEcu1110 control | 19 ± 0.3 % PfCRTEcu1110 control | 
5 | HVDDMP [HP-6] | 142 ± 3.3 % PfCRT3D7 control | 190 ± 4.3 % PfCRT3D7 control | 103 ± 1.1 % PfCRTDd2 control | 112 ± 1.1 % PfCRTDd2 control | 103 ± 1.1 % PfCRTDd2 control | 112 ± 1.1 % PfCRTDd2 control | 122 ± 4.2 % PfCRTEcu1110 control | 139 ± 3.4 % PfCRTEcu1110 control | 36 ± 1.3 % PfCRTEcu1110 control | 42 ± 1.3 % PfCRTEcu1110 control | 22 ± 2.9 % PfCRTDd2 control | 16 ± 1.2 % PfCRTDd2 control | 4.1 ± 0.1 % PfCRTDd2 control | 40 ± 1.0 % PfCRTEcu1110 control | 31 ± 1.6 % PfCRTEcu1110 control | 21 ± 1.6 % PfCRTEcu1110 control |  | 7.0 ± 0.02 % PfCRTEcu1110 control |  | 
6 | SHCLLVT [ST-7] | 140 ± 4.3 % PfCRT3D7 control | 192 ± 4.6 % PfCRT3D7 control | 97 ± 3.2 % PfCRTDd2 control | 113 ± 2.0 % PfCRTDd2 control | 97 ± 3.2 % PfCRTDd2 control | 113 ± 2.0 % PfCRTDd2 control | 130 ± 3.2 % PfCRTEcu1110 control | 136 ± 4.3 % PfCRTEcu1110 control | 39 ± 1.3 % PfCRTEcu1110 control | 41 ± 2.2 % PfCRTEcu1110 control | 38 ± 1.0 % PfCRTDd2 control | 27 ± 1.3 % PfCRTDd2 control | 12 ± 0.1 % PfCRTDd2 control | 39 ± 1.1 % PfCRTEcu1110 control | 31 ± 2.5 % PfCRTEcu1110 control | 19 ± 1.4 % PfCRTEcu1110 control | 12 ± 0.5 % PfCRTEcu1110 control | 6.0 ± 0.02 % PfCRTEcu1110 control | 10 ± 0.1 % PfCRTEcu1110 control | 
